Experimental data as given in ChEMBL document CHEMBL1201862, “PubChem BioAssay data set” (2004).
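A five-concentration, 48-hour dose response in 96-well plates underlies each endpoint, interpolated linearly between surrounding concentrations. GI50 = concentration required for 50% inhibition of growth.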 Active and inactive are the calls of the source. No stated cut-off is given here; in the data, active = GI50 up to about 1.1 µM and inactive = higher.

Tests used:
Assay in all cases: NCI-60 cell line screen, 48 h
SK-OV-3 = tested on: SK-OV-3
EKVX = tested on: EKVX
M14 = tested on: M14
COLO 205 = tested on: COLO 205
KM12 = tested on: KM12
MDA-MB-231 = tested on: MDA-MB-231
A549 = tested on: A549
MOLT-4 = tested on: MOLT-4
OVCAR-8 = tested on: OVCAR-8
NCI-H522 = tested on: NCI-H522
786-0 = tested on: 786-0
UACC-62 = tested on: UACC-62
Hs-578T = tested on: Hs-578T
SK-MEL-5 = tested on: SK-MEL-5
NCI-H23 = tested on: NCI-H23
SW-620 = tested on: SW-620
PC-3 = tested on: PC-3
SNB-19 = tested on: SNB-19
NCI-H460 = tested on: NCI-H460
UACC-257 = tested on: UACC-257

## O=[N+]([O-])/C=C(\CS(=O)(=O)c1ccccc1)c1ccc2c(c1)OCO2
SK-OV-3
  GI50: 33.1 µM (inactive)
EKVX
  GI50: > 100 µM (inactive)
M14
  GI50: 20.8 µM (inactive)
COLO 205
  GI50: 53.5 µM (inactive)
KM12
  GI50: 28.4 µM (inactive)
MDA-MB-231
  GI50: 23.1 µM (inactive)
A549
  GI50: 37.8 µM (inactive)
MOLT-4
  GI50: 67.9 µM (inactive)
OVCAR-8
  GI50: 60.1 µM (inactive)
NCI-H522
  GI50: 21.7 µM (inactive)
786-0
  GI50: 38.5 µM (inactive)
UACC-62
  GI50: 48.2 µM (inactive)
Hs-578T
  GI50: 38.1 µM (inactive)
SK-MEL-5
  GI50: 45.1 µM (inactive)
NCI-H23
  GI50: 5.69 µM (inactive)
SW-620
  GI50: 75.3 µM (inactive)

## O=c1[nH]/c(=C/c2ccc(OCc3ccccc3)cn2)c(=O)[nH]/c1=C/c1ccccc1
PC-3
  GI50: 0.141 µM (active)
SK-OV-3
  GI50: 0.531 µM (active)
SNB-19
  GI50: 0.157 µM (active)
EKVX
  GI50: 0.138 µM (active)
M14
  GI50: 0.129 µM (active)
COLO 205
  GI50: 1.06 µM (active)
KM12
  GI50: 0.118 µM (active)
MDA-MB-231
  GI50: 0.59 µM (active)
A549
  GI50: 0.594 µM (active)
MOLT-4
  GI50: 0.327 µM (active)
OVCAR-8
  GI50: 0.189 µM (active)
NCI-H460
  GI50: 0.132 µM (active)
NCI-H522
  GI50: 0.0942 µM (active)
786-0
  GI50: 0.128 µM (active)
UACC-62
  GI50: 0.191 µM (active)
Hs-578T
  GI50: 0.185 µM (active)
SK-MEL-5
  GI50: 0.106 µM (active)
NCI-H23
  GI50: 0.107 µM (active)
SW-620
  GI50: 0.158 µM (active)

## O=c1[nH]n(Cc2ccccc2Cl)c2ccccc12
PC-3
  GI50: > 100 µM (inactive)
SNB-19
  GI50: > 100 µM (inactive)
EKVX
  GI50: > 100 µM (inactive)
M14
  GI50: > 100 µM (inactive)
UACC-257
  GI50: 38.9 µM (inactive)
COLO 205
  GI50: > 100 µM (inactive)
KM12
  GI50: > 100 µM (inactive)
MDA-MB-231
  GI50: > 100 µM (inactive)
A549
  GI50: > 100 µM (inactive)
MOLT-4
  GI50: > 100 µM (inactive)
OVCAR-8
  GI50: > 100 µM (inactive)
NCI-H460
  GI50: > 100 µM (inactive)
NCI-H522
  GI50: > 100 µM (inactive)
786-0
  GI50: > 100 µM (inactive)
UACC-62
  GI50: > 100 µM (inactive)
Hs-578T
  GI50: > 100 µM (inactive)
SK-MEL-5
  GI50: > 100 µM (inactive)
NCI-H23
  GI50: > 100 µM (inactive)
SW-620
  GI50: > 100 µM (inactive)

## S=C(c1c[nH]c2ccccc12)N1CCN(Cc2ccccc2)CC1
PC-3
  GI50: 15.7 µM (inactive)
SK-OV-3
  GI50: 20.7 µM (inactive)
SNB-19
  GI50: 14.9 µM (inactive)
EKVX
  GI50: 18 µM (inactive)
M14
  GI50: 14 µM (inactive)
UACC-257
  GI50: 20.7 µM (inactive)
COLO 205
  GI50: 16.5 µM (inactive)
KM12
  GI50: 17.2 µM (inactive)
MDA-MB-231
  GI50: 17 µM (inactive)
MOLT-4
  GI50: 16.6 µM (inactive)
OVCAR-8
  GI50: 19.1 µM (inactive)
NCI-H460
  GI50: 25.2 µM (inactive)
786-0
  GI50: 15.7 µM (inactive)
UACC-62
  GI50: 15.6 µM (inactive)
Hs-578T
  GI50: 17.4 µM (inactive)
SK-MEL-5
  GI50: 12.1 µM (inactive)
NCI-H23
  GI50: 19.3 µM (inactive)
SW-620
  GI50: 17.8 µM (inactive)

## CCc1ccc(Nc2cc(=O)[nH]c(SCc3ccccc3)n2)cc1
SK-OV-3
  GI50: > 100 µM (inactive)
SNB-19
  GI50: 38.2 µM (inactive)
EKVX
  GI50: 57.7 µM (inactive)
M14
  GI50: > 100 µM (inactive)
UACC-257
  GI50: > 100 µM (inactive)
COLO 205
  GI50: > 100 µM (inactive)
KM12
  GI50: > 100 µM (inactive)
MDA-MB-231
  GI50: 4.17 µM (inactive)
A549
  GI50: > 100 µM (inactive)
MOLT-4
  GI50: > 100 µM (inactive)
OVCAR-8
  GI50: 44.9 µM (inactive)
NCI-H522
  GI50: > 100 µM (inactive)
786-0
  GI50: 43.6 µM (inactive)
UACC-62
  GI50: 48.8 µM (inactive)
Hs-578T
  GI50: > 100 µM (inactive)
SK-MEL-5
  GI50: 78 µM (inactive)
NCI-H23
  GI50: 61.5 µM (inactive)
SW-620
  GI50: > 100 µM (inactive)

## COC(=O)c1cc2c3c(c(C(C)=O)c(OC)c2[nH]1)NCC3
PC-3
  GI50: > 50 µM (inactive)
SK-OV-3
  GI50: > 50 µM (inactive)
SNB-19
  GI50: > 50 µM (inactive)
EKVX
  GI50: > 50 µM (inactive)
M14
  GI50: > 50 µM (inactive)
UACC-257
  GI50: > 50 µM (inactive)
COLO 205
  GI50: > 50 µM (inactive)
KM12
  GI50: > 50 µM (inactive)
MDA-MB-231
  GI50: > 50 µM (inactive)
MOLT-4
  GI50: > 50 µM (inactive)
OVCAR-8
  GI50: > 50 µM (inactive)
NCI-H460
  GI50: > 50 µM (inactive)
786-0
  GI50: > 50 µM (inactive)
UACC-62
  GI50: > 50 µM (inactive)
Hs-578T
  GI50: > 50 µM (inactive)
SK-MEL-5
  GI50: > 50 µM (inactive)
NCI-H23
  GI50: > 50 µM (inactive)
SW-620
  GI50: > 50 µM (inactive)

## C=C[C@@H]1OC(=O)O[C@H]1CO
PC-3
  GI50: > 100 µM (inactive)
SK-OV-3
  GI50: > 100 µM (inactive)
SNB-19
  GI50: > 100 µM (inactive)
EKVX
  GI50: > 100 µM (inactive)
M14
  GI50: > 100 µM (inactive)
UACC-257
  GI50: > 100 µM (inactive)
COLO 205
  GI50: > 100 µM (inactive)
KM12
  GI50: > 100 µM (inactive)
MDA-MB-231
  GI50: > 100 µM (inactive)
A549
  GI50: > 100 µM (inactive)
MOLT-4
  GI50: > 100 µM (inactive)
OVCAR-8
  GI50: > 100 µM (inactive)
786-0
  GI50: > 100 µM (inactive)
UACC-62
  GI50: > 100 µM (inactive)
Hs-578T
  GI50: > 100 µM (inactive)
SK-MEL-5
  GI50: > 100 µM (inactive)
NCI-H23
  GI50: > 100 µM (inactive)
SW-620
  GI50: > 100 µM (inactive)

## COc1cccc(N2C(=O)C3c4[nH]c5ccccc5c4C4c5ccccc5CCC4C3C2=O)c1 (stereo not given)
PC-3
  GI50: > 6.7 µM (inactive)
SK-OV-3
  GI50: > 4.86 µM (inactive)
SNB-19
  GI50: 3.31 µM (inactive)
EKVX
  GI50: > 9.31 µM (inactive)
M14
  GI50: 4.92 µM (inactive)
COLO 205
  GI50: > 7.87 µM (inactive)
KM12
  GI50: > 10 µM (inactive)
MDA-MB-231
  GI50: 5.06 µM (inactive)
A549
  GI50: 6.12 µM (inactive)
MOLT-4
  GI50: > 10 µM (inactive)
OVCAR-8
  GI50: 2.34 µM (inactive)
NCI-H460
  GI50: 4.82 µM (inactive)
NCI-H522
  GI50: > 10 µM (inactive)
786-0
  GI50: 2.9 µM (inactive)
UACC-62
  GI50: > 10 µM (inactive)
Hs-578T
  GI50: 3 µM (inactive)
SK-MEL-5
  GI50: > 8.81 µM (inactive)
NCI-H23
  GI50: > 10 µM (inactive)
SW-620
  GI50: > 9.14 µM (inactive)
